# Patent publication US9949479B2 (priority 2015, dated 2018)
# Read-outs that look alike come from different tables or passages of the source.
# Experiments:
# Fusarium asiaticum = assay: microbe, parasite or virus in culture; assay type: cell-based
# Fusarium graminearum = assay: microbe, parasite or virus in culture; assay type: cell-based; conditions: sensitive strains, Fusarium graminearum (both types of fusaria)
# wheat scab [1] = assay type: in vivo, Fusarium spp.
# powdery mildew = assay type: in vivo; conditions: dose as in E145
# wheat scab [2] = assay type: in vivo, Fusarium spp.; conditions: Serial 29: Carbendazim 50 g a.i. (control agent)
# [3] = assay type: in vivo, wheat; conditions: dose as in E145
# leaf blight = assay type: in vivo; conditions: dose as in E145
# wheat scab [4] = assay type: in vivo, Fusarium spp.; conditions: sprayed twice; g ai. agent/mu, Jinggangmycin+Metconazole by row: r16 1+15; r17 3+10; r18 5+5; r19 5+10; r20 5+15; r21 10+3; r22 10+10; r23 10+15; r24 50+3; r25 50+10; r26 50+15; r27 100+5; r28 100+10; Jinggangmycin alone r29 100; r30 50; r31 10; r32 5; r33 3; r34 1; Metconazole alone r35 15; r36 10; r37 5; r38 3; r39 Carbendazim 40
# [5] = assay type: in vivo, wheat
# [6] = assay type: in vivo, wheat; conditions: Serial 29: Carbendazim 50 g a.i. (control agent)
# [7] = tested on: DON toxin synthesis capability of thalli; parameters: species or system Fusarium spp.; conditions: in vivo
# [8] = parameters: species or system wheat; conditions: in vivo
# rust = assay type: in vivo; conditions: dose as in E145
SMILES,"ED50 (Fusarium asiaticum; sensitive strains, Fusarium asiaticum (both types of fusaria))",ED50 (Fusarium graminearum),ED50 (Fusarium asiaticum),"Disease Index Prevention Effect % Actual Prevention Effect (wheat scab [1]; sprayed twice, g ai. agent/mu, Jinggangmycin+Metconazole by row: r12 0.5+25, r13 1+20, r14 5+5, r15 5+10, r16 5+15, r17 10+3, r18 10+5, r19 10+10, r20 10+15, r21 50+3, r22 50+5, r23 50+10, r24 50+15, r25 100+3, r26 100+5, r27 100+10, r28 100+15, r29 150+3, Jinggangmycin alone r30 0.5, r31 1, r32 5, r33 10, r34 50, r35 100, r36 150, Metconazole alone r37 3, r38 5, r39 10, r40 15, r41 20, r42 25, r4)",prevention effect on head blight (wheat scab [1]; used for treatment alone),Disease Index Prevention Effect % Powdery Mildew (powdery mildew),Disease Index Prevention Effect % Head Blight (wheat scab [2]),Grain Toxin Content [3],DON Reduction Percentage (%) ([3]; vs control),Disease Index Prevention Effect % Leaf Blight (leaf blight),Disease Index Prevention Effect % Head Blight (wheat scab [4]),Grain Toxin Content ([5]; dose by row as in E139),decrease of toxin contamination level in comparison with the blank control ([5]; used for treatment alone),toxin contamination level of grains ([5]; used for treatment alone),"DON Contamination Reduction Rate % ([5]; vs blank control, dose by row as in E139)",Grain Toxin Content (mg of DON/Kg of grain) [6],Rate of Decrease in Toxin Content in Grains (%) [6],DON Synthesis Capability [7],Thousand Kernel Weight [8],Disease Index Prevention Effect % Rust (rust)
CCOC(=O)C(C#N)=C(N)c1ccccc1 [phenamacril],0.165 µg/mL,0.165 µg/mL,,,,,,,,,,,,,,,,,,
"COC(=O)Nc1nc2ccccc2[nH]1 [Carbendazim, carbendazim]",,0.45 µg/mL,0.45 µg/mL,67.5%,67.5%,52.6%,49.04%,5.67 μg of toxin/g of kernels,55.0%,48.5%,38.6%,4.4 μg of toxin/g of kernels,58.5%,4.4 mg/kg of grains,58.5%,4.35 mg of DON/Kg of grain,32.7%,28.94,41.6 g,61.2%
